Test results taken from patent US20110038885A1, “CHEMOKINE ANALOGS” (priority 2007, published 2011).
Numbered stars: 1 amine (or outer) side, 2 acyl side, 3 side chain; on linkers, the order of the positions; unused ones are H or OH. Bridge positions count the residues as written; N and C are the ends. Square brackets hold non-standard residues; d marks the D form. Peptide text beside a SMILES is read from it. * marks the point of attachment. Benzoyl(4-Ph) = O=C(c1ccc(-c2ccccc2)cc1)*; Phenylacetyl(4-Me) = Cc1ccc(CC(=O)*)cc1; Glutaryl = O=C(CCCC(=O)[*:2])[*:1]; 1Naphthoyl = O=C(c1cccc2ccccc12)*; 2Naphthoyl = O=C(c1ccc2ccccc2c1)*; pGlu = O=C1CC[C@@H](C(=O)O)N1; Suc = O=C(CCC(=O)[*:2])[*:1]; X4 = O=C(c1cc2ccccc2[nH]1)*; hCys = N[C@@H](CCS)C(=O)O; Isobutyryl = CC(C)C(=O)*; Orn = NCCC[C@H](N)C(=O)O; Dap = NC[C@H](N)C(=O)O; Piv = CC(C)(C)C(=O)*; Butyryl = CCCC(=O)*; Bz = O=C(c1ccccc1)*; Ahx = NCCCCCC(=O)O; GABA = NCCCC(=O)O; βAla = NCCC(=O)O

Test system: MCP-1
Experiment: In vitro chemotaxis (trans-well migration) v MCP-1
Type: cell-based, human
Procedure: To determine whether an agent inhibits a chemokine-induced activity, such as macrophage recruitment, varying amounts of the agent are mixed with cells in the presence of a known chemoattractant. For example, a range of known concentrations of an agent, e.g., a chemokine peptide, is incubated with a defined number (e.g., 10^4-10^6) of human THP-1 monocyte cells in individual wells of the top compartment of a trans-well plate. Chemokine, at a concentration known to cause significant migration of THP-1 cells in the trans-well migration assay, is placed in the lower compartment of a trans-well plate. Cells are then incubated at 37° C. for a period sufficient to allow migration, e.g., 4 hours. After incubation, the cells are gently removed from the top of the filter with a pipette, 20 μl of 20 mM EDTA in simple PBS is added into each top well, and incubated for 20 minutes at 4° C. The filter is carefully flushed with media using a gentle flow, and removed. A standard curve consisting of a two-fold dilution series of THP-1 cells (in 29 μl) is placed to accurately quantify the number of cells that have migrated. Migrated cells are stained with 3 μl of MTT stock dye solution which is added directly into each well (5 mg/ml in RPMI-1640 without phenol red) (Sigma Chemical Co., St. Louis, Mo., USA) and incubated at 37° C. for 4 hours. The media is carefully aspirated from each well, and the converted dye is solubilized by 20 μl of DMSO. Absorbance of converted dye is measured at a wavelength of 595 nm using an ELISA plate reader. The number of migrated cells in each well is then determined by interpolation of the standard curve (see also Imai et al., J. Biol. Chem., 272:15036, 1997). Any method suitable for counting cells can be used, for example, counting with a hemocytometer, incubation of the cells with MTT (see above), or FACS analysis. A negative control assay is also performed, using TGFβ or another non-chemokine chemoattractant (e.g., IL1β or TNFα). To assess whether the agent is cytotoxic, the same concentrations of agent are incubated with THP-1 cells. Agents which 1) are not cytotoxic at levels which inhibit migration, 2) are ineffective at inhibiting the negative control-induced migration, and 3) reduce or inhibit chemokine-induced THP-1 migration, are agents which fall within the scope of the invention.

| SMILES | EC50 [nM] |
| --- | --- |
| CC[C@H](C)[C@@H]1NC(=O)[C@H](Cc2c[nH]c3ccccc23)NC(=O)[C@@H](N)CSSC[C@@H](C(N)=O)NC(=O)[C@H](CCC(N)=O)NC1=O [Example 2, c(Cys-Trp-Ile-Gln-Cys)-NH2] (H-CWIQC-NH2; disulfide 1-5) | 7 |
| CC[C@H](C)[C@@H]1NC(=O)[C@H](Cc2c[nH]c3ccccc23)NC(=O)[C@H](CCCCN)NC(=O)CSCC[C@@H](C(N)=O)NC(=O)[C@H](CCC(N)=O)NC1=O [Example 4, (Ac=Lys=Trp=Ile=Gln=hCyc)=NH2] ({CH2CO}-KWIQ[hCys]-NH2; thioether N-5) | 20 |
| CC[C@H](C)[C@@H]1NC(=O)[C@H](Cc2c[nH]c3ccccc23)NC(=O)[C@H](CCCCN)NC(=O)CCCCCNC(=O)C[C@@H](C(N)=O)NC(=O)[C@H](CCC(N)=O)NC1=O [Example 5, c(Ahx-Lys-Trp-Ile-Gln-Asp)-NH2] ([Ahx]KWIQD-NH2; lactam N-6) | 5 |
| CC[C@H](C)[C@@H]1NC(=O)[C@H](Cc2c[nH]c3ccccc23)NC(=O)[C@H](CCCCN)NC(=O)[C@@H](NC(=O)C(C)C)CNC(=O)CC[C@@H](C(N)=O)NC(=O)[C@H](CCC(N)=O)NC1=O [Example 7, Isobutyryl-c(Dap-Lys-Trp-Ile-Gln-Glu)-NH2] (Isobutyryl-[Dap]KWIQE-NH2; lactam 1-6) | 5 |
| CC[C@H](C)[C@@H]1NC(=O)[C@H](Cc2c[nH]c3ccccc23)NC(=O)[C@H](CCCCN)NC(=O)CCCC(=O)NCCC[C@@H](C(N)=O)NC(=O)[C@H](CCC(N)=O)NC1=O [Example 8, c(Glutaryl-Lys-Trp-Ile-Gln-Orn)-NH2] (KWIQ[Orn]-NH2; linker N-5 via Glutaryl) | 5 |
| NCCCC[C@@H]1NC(=O)CCNC(=O)C[C@@H](C(N)=O)NC(=O)[C@H](CCC(N)=O)NC(=O)[C@H](Cc2c[nH]c3ccccc23)NC1=O [Example 59, c((βA1a-Lys-Trp-Gln-Asp)-NH2] ([βAla]KWQD-NH2; lactam N-5) | 25 |
| CC[C@H](C)[C@@H]1NC(=O)[C@H](Cc2c[nH]c3ccccc23)NC(=O)[C@H](CCCCN)NC(=O)CCCNC(=O)C[C@@H](C(N)=O)NC(=O)[C@H](CCC(N)=O)NC1=O [Example 60, c(Gaba-Lys-Trp-Ile-Gln-Asp)-NH2] ([GABA]KWIQD-NH2; lactam N-6) | 30 |
| CC[C@H](C)[C@@H]1NC(=O)[C@H](Cc2c[nH]c3ccccc23)NC(=O)[C@H](CCCCN)NC(=O)CCCNC(=O)CC[C@@H](C(N)=O)NC(=O)[C@H](CCC(N)=O)NC1=O [Example 61, c(Gaba-Lys-Trp-Ile-Gln-Glu)-NH2] ([GABA]KWIQE-NH2; lactam N-6) | 25 |
| CC[C@H](C)[C@@H]1NC(=O)[C@H](Cc2c[nH]c3ccccc23)NC(=O)[C@H](CCCCN)NC(=O)CCC(=O)NCCC[C@@H](C(N)=O)NC(=O)[C@H](CCC(N)=O)NC1=O [Example 62, c(Succinyl-Lys-Trp-Ile-Gln-Orn)-NH2] (KWIQ[Orn]-NH2; linker N-5 via Suc) | 66 |
| CC[C@H](C)[C@@H]1NC(=O)[C@H](Cc2c[nH]c3ccccc23)NC(=O)[C@H](CCCCN)NC(=O)CCC(=O)NCCCC[C@@H](C(N)=O)NC(=O)[C@H](CCC(N)=O)NC1=O [Example 63, c(Succinyl-Lys-Trp-Ile-Gln-Lys)-NH2] (KWIQK-NH2; linker N-5 via Suc) | 66 |
| CC[C@H](C)[C@@H]1NC(=O)[C@H](Cc2c[nH]c3ccccc23)NC(=O)[C@H](CCCCN)NC(=O)[C@@H](NC(C)=O)CC(=O)NCCCC[C@@H](C(N)=O)NC(=O)[C@H](CCC(N)=O)NC1=O [Example 64, Ac-c(Asp-Lys-Trp-Ile-Gln-Lys)-NH2] (Ac-DKWIQK-NH2; lactam 1-6) | 20 |

Now from value to compound:

| EC50 [nM] | SMILES |
| --- | --- |
| 6 | CC[C@H](C)[C@@H]1NC(=O)[C@H](Cc2c[nH]c3ccccc23)NC(=O)[C@H](CCCCN)NC(=O)[C@@H](NC(=O)[C@@H](CCC(N)=O)NC(C)=O)CSSC[C@@H](C(N)=O)NC(=O)[C@H](CCC(N)=O)NC1=O [Example 3, Ac-DGln-c(Cys-Lys-Trp-Ile-Gln-Cys)-NH2] (Ac-[dQ]CKWIQC-NH2; disulfide 2-7) |
| 5 | CC[C@H](C)[C@@H]1NC(=O)[C@H](Cc2c[nH]c3ccccc23)NC(=O)[C@H](CCCCN)NC(=O)[C@@H](NC(=O)C(C)C)CC(=O)NC[C@@H](C(N)=O)NC(=O)[C@H](CCC(N)=O)NC1=O [Example 6, Isobutyryl-c(Asp-Lys-Trp-Ile-Gln-Dap)-NH2] (Isobutyryl-DKWIQ[Dap]-NH2; lactam 1-6) |
| 25 | CC[C@H](C)[C@@H]1NC(=O)[C@H](Cc2c[nH]c3ccccc23)NC(=O)[C@H](CCCCN)NC(=O)[C@@H](NC(=O)[C@@H]2CCC(=O)N2)CSSC[C@@H](C(N)=O)NC(=O)[C@H](CCC(N)=O)NC1=O [Example 52, pGlu-c(Cys-Lys-Trp-Ile-Gln-Cys)-NH2] ([pGlu]CKWIQC-NH2; disulfide 2-7) |
| 25 | CCCC(=O)N[C@H]1CSSC[C@@H](C(N)=O)NC(=O)[C@H](CCC(N)=O)NC(=O)[C@H]([C@@H](C)CC)NC(=O)[C@H](Cc2c[nH]c3ccccc23)NC(=O)[C@H](CCCCN)NC1=O [Example 56, nButyryl-c(Cys-Lys-Trp-Ile-Gln-Cys)-NH2] (Butyryl-CKWIQC-NH2; disulfide 1-6) |
| 15 | CC[C@H](C)[C@@H]1NC(=O)[C@H](Cc2c[nH]c3ccccc23)NC(=O)[C@H](CCCCN)NC(=O)[C@@H](NC(=O)c2ccccc2)CSSC[C@@H](C(N)=O)NC(=O)[C@H](CCC(N)=O)NC1=O [Example 57, Benzoyl-c(Cys-Lys-Trp-Ile-Gln-Cys)-NH2] (Bz-CKWIQC-NH2; disulfide 1-6) |
| 8 | CC[C@H](C)[C@@H]1NC(=O)[C@H](Cc2c[nH]c3ccccc23)NC(=O)[C@H](CCCCN)NC(=O)[C@@H](NC(=O)C(C)C)CSSC[C@@H](C(N)=O)NC(=O)[C@H](CCC(N)=O)NC1=O [Example 58, Isobutyryl-c(Cys-Lys-Trp-Ile-Gln-Cys)-NH2] (Isobutyryl-CKWIQC-NH2; disulfide 1-6) |
| 30 | CC[C@H](C)[C@@H]1NC(=O)[C@H](Cc2c[nH]c3ccccc23)NC(=O)[C@H](CCCCN)NC(=O)CSC[C@@H](C(N)=O)NC(=O)[C@H](CCC(N)=O)NC1=O [Example 65, c(Ac-Lys-Trp-Ile-Gln-Cys)-NH2] ({CH2CO}-KWIQC-NH2; thioether N-5) |
| 10 | CC[C@H](C)[C@@H]1NC(=O)[C@H](Cc2c[nH]c3ccccc23)NC(=O)[C@H](CCCCN)NC(=O)[C@@H](NC(=O)C(C)(C)C)CSSC[C@@H](C(N)=O)NC(=O)[C@H](CCC(N)=O)NC1=O [Example 66, Trimethylacetyl-c(Cys-Lys-Trp-Ile-Gln-Cys)-NH2] (Piv-CKWIQC-NH2; disulfide 1-6) |
| 8 | CC[C@H](C)[C@@H]1NC(=O)[C@H](Cc2c[nH]c3ccccc23)NC(=O)[C@H](CCCCN)NC(=O)[C@@H](NC(=O)c2ccc(-c3ccccc3)cc2)CSSC[C@@H](C(N)=O)NC(=O)[C@H](CCC(N)=O)NC1=O [Example 67, 4-Biphenylcarboxyl-c(Cys-Lys-Trp-Ile-Gln-Cys)-NH2] ({Benzoyl(4-Ph)}-CKWIQC-NH2; disulfide 1-6) |
| 30 | CC[C@H](C)[C@@H]1NC(=O)[C@H](Cc2c[nH]c3ccccc23)NC(=O)[C@H](CCCCN)NC(=O)[C@@H](NC(=O)c2cccc3ccccc23)CSSC[C@@H](C(N)=O)NC(=O)[C@H](CCC(N)=O)NC1=O [Example 68, 1-Naphthoyl-c(Cys-Lys-Trp-Ile-Gln-Cys)-NH2] (1Naphthoyl-CKWIQC-NH2; disulfide 1-6) |
| 15 | CC[C@H](C)[C@@H]1NC(=O)[C@H](Cc2c[nH]c3ccccc23)NC(=O)[C@H](CCCCN)NC(=O)[C@@H](NC(=O)c2ccc3ccccc3c2)CSSC[C@@H](C(N)=O)NC(=O)[C@H](CCC(N)=O)NC1=O [Example 69, 2-Naphthoyl-c(Cys-Lys-Trp-Ile-Gln-Cys)-NH2] (2Naphthoyl-CKWIQC-NH2; disulfide 1-6) |
| 5 | CC[C@H](C)[C@@H]1NC(=O)[C@H](Cc2c[nH]c3ccccc23)NC(=O)[C@H](CCCCN)NC(=O)[C@@H](NC(=O)c2cc3ccccc3[nH]2)CSSC[C@@H](C(N)=O)NC(=O)[C@H](CCC(N)=O)NC1=O [Example 70, 2-Indolecarboxyl-c(Cys-Lys-Trp-Ile-Gln-Cys)-NH2] (X4-CKWIQC-NH2; disulfide 1-6) |
| 10 | CC[C@H](C)[C@@H]1NC(=O)[C@H](Cc2c[nH]c3ccccc23)NC(=O)[C@H](CCCCN)NC(=O)[C@@H](NC(=O)Cc2ccc(C)cc2)CSSC[C@@H](C(N)=O)NC(=O)[C@H](CCC(N)=O)NC1=O [Example 71, p-Tolylacetyl-c(Cys-Lys-Trp-Ile-Gln-Cys)-NH2] ({Phenylacetyl(4-Me)}-CKWIQC-NH2; disulfide 1-6) |
